Active and inactive are the calls of the source. The rule behind the calls is not given here.
Columns and labels:
[1] = biological target: Serine/threonine-protein kinase SIK2 (Homo sapiens) (UniProt Q9H0K1); assay: Inhibition of SIK2 in human SK-OV-3 cells assessed as upregulation of cyclin A expression level at 5 uM incubated for 48 hrs by Western blotting analysis; format: cell-based
[2] = Drug metabolism in Sprague-Dawley rat liver microsomes assessed as compound metabolized incubated for 60 mins in presence of NADPH by HPLC analysis; format: ADME, Microsome; conditions: 1 h
[3] = biological target: Cyclin-G-associated kinase (Homo sapiens, UniProt O14976); assay: Inhibition of full length NanoLuc fused GAK (unknown origin) transfected in HEK293T cells using NanoBRET NanoGlo substrate incubated for 2 hrs in presence of tracer by NanoBRET assay; format: cell-based
Sequence of Cyclin-G-associated kinase (O14976 whole entry, the tested form may be a part): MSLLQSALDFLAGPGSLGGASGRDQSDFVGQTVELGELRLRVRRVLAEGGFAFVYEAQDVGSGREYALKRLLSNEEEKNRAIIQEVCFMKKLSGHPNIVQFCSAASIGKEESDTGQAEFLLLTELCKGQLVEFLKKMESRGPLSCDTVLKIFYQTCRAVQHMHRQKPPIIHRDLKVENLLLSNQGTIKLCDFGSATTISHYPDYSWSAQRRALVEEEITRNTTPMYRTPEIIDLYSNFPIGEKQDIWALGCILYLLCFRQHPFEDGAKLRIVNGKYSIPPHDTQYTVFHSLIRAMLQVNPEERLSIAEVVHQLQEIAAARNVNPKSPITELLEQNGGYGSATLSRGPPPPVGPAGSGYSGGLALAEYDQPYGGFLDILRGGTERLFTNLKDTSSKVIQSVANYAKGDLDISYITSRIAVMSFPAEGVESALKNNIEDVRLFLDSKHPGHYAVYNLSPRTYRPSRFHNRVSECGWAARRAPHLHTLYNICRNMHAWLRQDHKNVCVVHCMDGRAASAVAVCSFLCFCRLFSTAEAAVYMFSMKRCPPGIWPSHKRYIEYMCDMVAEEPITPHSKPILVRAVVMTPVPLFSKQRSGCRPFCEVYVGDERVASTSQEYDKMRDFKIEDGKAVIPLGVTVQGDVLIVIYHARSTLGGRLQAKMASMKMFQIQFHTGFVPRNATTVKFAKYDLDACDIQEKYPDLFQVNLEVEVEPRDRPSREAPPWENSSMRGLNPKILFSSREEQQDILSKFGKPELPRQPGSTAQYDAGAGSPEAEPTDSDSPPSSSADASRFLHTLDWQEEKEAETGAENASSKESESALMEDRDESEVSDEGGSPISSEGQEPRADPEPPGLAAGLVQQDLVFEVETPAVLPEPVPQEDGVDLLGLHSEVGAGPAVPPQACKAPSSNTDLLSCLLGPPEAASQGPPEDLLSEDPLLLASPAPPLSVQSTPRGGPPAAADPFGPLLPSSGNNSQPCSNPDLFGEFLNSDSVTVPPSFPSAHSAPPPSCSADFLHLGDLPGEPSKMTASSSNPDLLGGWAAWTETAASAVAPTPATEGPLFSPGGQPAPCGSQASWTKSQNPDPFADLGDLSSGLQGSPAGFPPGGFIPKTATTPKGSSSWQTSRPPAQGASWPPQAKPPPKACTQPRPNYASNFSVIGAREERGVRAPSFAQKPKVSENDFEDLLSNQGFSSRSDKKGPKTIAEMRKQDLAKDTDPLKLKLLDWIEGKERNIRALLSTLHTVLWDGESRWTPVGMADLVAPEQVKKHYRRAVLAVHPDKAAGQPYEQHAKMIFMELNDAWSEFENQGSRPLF

[4] = biological target: Tyrosine-protein kinase ABL1 (Homo sapiens, UniProt P00519); assay: Binding affinity to recombinant ABL1 (unknown origin) assessed as stabilization by measuring change in melting temperature at 10 uM by SYPRO orange dye based differential scanning fluorimetry assay
Sequence of Tyrosine-protein kinase ABL1 (P00519 whole entry): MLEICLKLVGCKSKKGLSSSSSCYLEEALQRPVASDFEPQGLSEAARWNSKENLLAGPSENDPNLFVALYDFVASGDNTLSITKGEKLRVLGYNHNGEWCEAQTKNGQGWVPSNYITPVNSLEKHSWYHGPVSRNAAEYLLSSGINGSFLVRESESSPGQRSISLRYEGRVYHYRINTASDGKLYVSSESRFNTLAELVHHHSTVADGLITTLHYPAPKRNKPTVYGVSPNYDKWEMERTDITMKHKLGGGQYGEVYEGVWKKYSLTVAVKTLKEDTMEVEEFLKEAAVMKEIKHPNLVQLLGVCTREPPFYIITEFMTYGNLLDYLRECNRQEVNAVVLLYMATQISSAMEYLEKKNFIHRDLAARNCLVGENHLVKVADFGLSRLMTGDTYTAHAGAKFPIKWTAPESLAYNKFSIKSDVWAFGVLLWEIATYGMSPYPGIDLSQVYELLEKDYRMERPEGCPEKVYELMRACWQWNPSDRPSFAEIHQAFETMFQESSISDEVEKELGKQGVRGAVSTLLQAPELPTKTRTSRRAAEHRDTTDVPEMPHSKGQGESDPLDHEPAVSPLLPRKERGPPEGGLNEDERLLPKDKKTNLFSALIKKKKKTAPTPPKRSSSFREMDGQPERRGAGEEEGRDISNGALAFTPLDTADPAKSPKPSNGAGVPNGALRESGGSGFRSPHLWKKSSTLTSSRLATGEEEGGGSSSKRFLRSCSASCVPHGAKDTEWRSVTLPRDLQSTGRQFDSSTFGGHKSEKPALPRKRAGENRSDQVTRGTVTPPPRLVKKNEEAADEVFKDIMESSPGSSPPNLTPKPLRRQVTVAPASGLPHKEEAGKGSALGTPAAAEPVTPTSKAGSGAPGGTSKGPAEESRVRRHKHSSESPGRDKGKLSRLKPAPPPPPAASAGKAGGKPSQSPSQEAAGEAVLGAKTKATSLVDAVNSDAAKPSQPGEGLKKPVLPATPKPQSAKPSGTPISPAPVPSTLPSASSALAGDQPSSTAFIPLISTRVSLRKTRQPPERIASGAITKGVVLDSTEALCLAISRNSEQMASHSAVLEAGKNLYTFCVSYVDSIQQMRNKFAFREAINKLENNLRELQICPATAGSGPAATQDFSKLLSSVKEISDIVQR

[5] = Binding affinity to recombinant RSK1b (unknown origin) assessed as stabilization by measuring change in melting temperature at 10 uM by SYPRO orange dye based differential scanning fluorimetry assay; conditions: Homo sapiens
[6] = biological target: T1, Serine/threonine-protein kinase 3 (Homo sapiens) (UniProt Q13188); assay: Binding affinity to recombinant MST2 (unknown origin) assessed as stabilization by measuring change in melting temperature at 10 uM by SYPRO orange dye based differential scanning fluorimetry assay
T1 sequence (whole entry): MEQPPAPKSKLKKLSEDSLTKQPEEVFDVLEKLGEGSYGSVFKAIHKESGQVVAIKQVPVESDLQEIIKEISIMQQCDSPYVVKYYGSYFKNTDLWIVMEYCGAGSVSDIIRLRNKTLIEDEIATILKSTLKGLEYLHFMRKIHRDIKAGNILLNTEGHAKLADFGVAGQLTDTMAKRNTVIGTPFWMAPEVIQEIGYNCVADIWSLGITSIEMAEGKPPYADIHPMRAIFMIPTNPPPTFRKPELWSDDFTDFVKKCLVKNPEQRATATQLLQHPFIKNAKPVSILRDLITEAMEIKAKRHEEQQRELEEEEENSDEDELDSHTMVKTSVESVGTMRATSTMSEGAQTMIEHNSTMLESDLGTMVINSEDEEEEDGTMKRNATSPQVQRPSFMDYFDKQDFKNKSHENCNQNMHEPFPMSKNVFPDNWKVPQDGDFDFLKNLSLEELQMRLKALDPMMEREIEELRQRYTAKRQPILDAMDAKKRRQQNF

[7] = system: HCT-116; assay: Cytotoxicity against human HCT-116 cells assessed as reduction in cell count at 1 uM incubated for >60 hrs by Hoechst-33342 staining high-content imaging analysis; format: toxicity, cell-based; conditions: hct-116, 60 h
[8] = biological target: Ephrin type-B receptor 2 (Homo sapiens, UniProt P29323); assay: Inhibition of full length NanoLuc fused EPHB2 (unknown origin) transfected in HEK293T cells using NanoBRET NanoGlo substrate incubated for 2 hrs in presence of tracer by NanoBRET assay; format: cell-based
Sequence of Ephrin type-B receptor 2 (P29323 whole entry, the tested form may be a part): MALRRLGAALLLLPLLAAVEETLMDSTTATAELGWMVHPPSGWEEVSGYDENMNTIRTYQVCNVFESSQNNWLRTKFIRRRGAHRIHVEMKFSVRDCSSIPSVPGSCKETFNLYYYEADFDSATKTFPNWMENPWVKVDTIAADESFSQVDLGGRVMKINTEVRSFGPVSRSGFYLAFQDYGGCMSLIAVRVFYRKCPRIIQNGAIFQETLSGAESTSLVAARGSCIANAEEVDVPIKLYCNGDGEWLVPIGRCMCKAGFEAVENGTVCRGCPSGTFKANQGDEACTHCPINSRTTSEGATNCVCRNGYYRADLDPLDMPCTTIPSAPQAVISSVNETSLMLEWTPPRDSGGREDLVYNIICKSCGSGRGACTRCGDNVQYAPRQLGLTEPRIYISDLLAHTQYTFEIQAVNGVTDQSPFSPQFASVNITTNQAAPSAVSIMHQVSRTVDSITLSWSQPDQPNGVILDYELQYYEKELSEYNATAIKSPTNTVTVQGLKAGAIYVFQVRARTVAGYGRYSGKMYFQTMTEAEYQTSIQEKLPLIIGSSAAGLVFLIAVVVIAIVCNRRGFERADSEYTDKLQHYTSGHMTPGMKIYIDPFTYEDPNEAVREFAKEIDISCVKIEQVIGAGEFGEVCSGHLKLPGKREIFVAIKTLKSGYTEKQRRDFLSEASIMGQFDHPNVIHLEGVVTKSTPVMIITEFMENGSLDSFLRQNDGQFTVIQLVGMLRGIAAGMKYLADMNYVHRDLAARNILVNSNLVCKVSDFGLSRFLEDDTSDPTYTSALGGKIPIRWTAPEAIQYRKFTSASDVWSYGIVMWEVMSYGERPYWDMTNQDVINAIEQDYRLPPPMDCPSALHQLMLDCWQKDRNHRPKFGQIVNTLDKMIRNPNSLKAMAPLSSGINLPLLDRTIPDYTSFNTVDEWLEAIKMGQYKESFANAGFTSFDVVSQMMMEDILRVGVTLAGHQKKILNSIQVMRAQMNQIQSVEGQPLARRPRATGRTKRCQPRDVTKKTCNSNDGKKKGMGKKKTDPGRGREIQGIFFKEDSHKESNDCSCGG

[9] = biological target: Cyclin-G-associated kinase (Homo sapiens) (UniProt O14976); assay: Binding affinity to recombinant GAK (unknown origin) assessed as stabilization by measuring change in melting temperature at 10 uM by SYPRO orange dye based differential scanning fluorimetry assay
Sequence of Cyclin-G-associated kinase (Homo sapiens) (O14976 whole entry): as the sequence (O14976 whole entry, the tested form may be a part) above

[10] = biological target: Serine/threonine-protein kinase SIK2 (Homo sapiens) (UniProt Q9H0K1); assay: Inhibition of SIK2 in human SK-OV-3 cells assessed as downregulation of AKT phosphorylation at Ser473 at 5 uM incubated for 48 hrs by Western blotting analysis; format: cell-based

Sequence of Serine/threonine-protein kinase SIK2 (Homo sapiens) (Q9H0K1 whole entry, looked up): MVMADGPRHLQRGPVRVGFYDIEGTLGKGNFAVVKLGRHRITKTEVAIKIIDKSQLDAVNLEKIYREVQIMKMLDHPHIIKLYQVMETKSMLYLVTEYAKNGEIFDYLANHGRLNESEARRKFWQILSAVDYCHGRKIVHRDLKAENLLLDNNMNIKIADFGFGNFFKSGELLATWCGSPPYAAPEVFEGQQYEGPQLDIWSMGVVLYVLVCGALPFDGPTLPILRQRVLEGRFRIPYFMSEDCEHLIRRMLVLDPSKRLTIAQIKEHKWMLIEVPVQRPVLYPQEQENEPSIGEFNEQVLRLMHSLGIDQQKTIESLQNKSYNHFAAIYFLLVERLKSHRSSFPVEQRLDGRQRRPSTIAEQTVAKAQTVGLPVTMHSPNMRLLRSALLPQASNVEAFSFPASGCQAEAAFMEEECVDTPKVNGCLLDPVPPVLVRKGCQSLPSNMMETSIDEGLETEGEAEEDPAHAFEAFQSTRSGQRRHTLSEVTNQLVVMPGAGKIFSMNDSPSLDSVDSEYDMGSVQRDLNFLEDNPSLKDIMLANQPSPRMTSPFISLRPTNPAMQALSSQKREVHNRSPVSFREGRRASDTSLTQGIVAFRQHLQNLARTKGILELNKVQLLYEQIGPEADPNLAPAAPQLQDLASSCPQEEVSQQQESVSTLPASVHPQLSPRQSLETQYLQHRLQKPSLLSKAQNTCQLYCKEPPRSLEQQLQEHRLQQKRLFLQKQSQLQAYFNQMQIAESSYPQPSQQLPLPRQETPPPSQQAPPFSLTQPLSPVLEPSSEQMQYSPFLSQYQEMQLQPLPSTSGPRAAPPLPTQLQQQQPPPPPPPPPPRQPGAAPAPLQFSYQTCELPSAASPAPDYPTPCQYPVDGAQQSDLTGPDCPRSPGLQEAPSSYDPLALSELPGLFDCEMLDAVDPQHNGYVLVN

- inhibition [1]: Active
- Drug metabolism [2]: Metabolite_Detected
- IC50 [3]: 33.8 µM
- ΔTm [4]: 7.4 °C
- ΔTm [5]: 15.1 °C
- ΔTm [6]: 0.6 °C
- IC50 [8]: 22.6 µM
- ΔTm [9]: 5.9 °C
- inhibition [10]: Active
SMILES: CNc1ncc2cc(-c3cc(F)ccc3F)c(=O)n(CCCCN)c2n1
- Activity [7]: Toxic

Reference: ChEMBL document CHEMBL5325437, “Shifting the selectivity of pyrido[2,3-d]pyrimidin-7(8H)-one inhibitors towards the salt-inducible kinase (SIK) subfamily” (Eur J Med Chem, 2023)
